The source of these data is ChEMBL document CHEMBL1145707, “Methyl 4-hydroxy-3-(3'-methyl-2'-butenyl)benzoate, major insecticidal principle from Piper guanacastensis” (1997).

A word on the LC50: it is the concentration that kills 50% of the test population. A higher LC50 goes with a less lethal substance.

≈ marks a conversion by molar mass, not a printed value.

This assay has as its system Aedes atropalpus. Nature of the assay: Insecticidal activity against Aedes atropalpus second-instar larvae after 24 hrs. The format is functional.

For the compound `COC(=O)c1ccc(O)c(CC=C(C)C)c1`, the LC50 amounted to 20.5 µg/mL (≈ 93.1 µM).
The figure for `CCOC(=O)c1ccc(O)c(CC=C(C)C)c1` is 25.7 µg/mL (≈ 110 µM).
